{
  "source": "patent US9629828B2",
  "about": "“Methods of treating traveler's diarrhea and hepatic encephalopathy” (priority 2008, dated 2017)",
  "key": {"[1]": {"tested_on": "subjects in remission from hepatic encephalopathy (HE)", "assay": "First study: Conn score (time to any increase, change from baseline)", "type": "in vivo, human", "conditions": "for Event probability (increase in Conn score during the treatment interval) / Probability of no increase in Conn score: Kaplan-Meier; for Event probability (increase in Conn score during the treatment interval) / Probability of no increase in Conn score / Cumulative number of events (increase in Conn score) / Number of events (increase in Conn score): ITT, N = 140", "text": "The scale used in the Conn scoring system is provided below. • Grade 0=No personality or behavioral abnormality detected • Grade 1=Trivial lack of awareness, euphoria or anxiety; shortened attention span; impairment of addition or subtraction • Grade 2=Lethargy; disorientation for time; obvious personality change; inappropriate behavior • Grade 3=Somnolence to semi-stupor, responsive to stimuli; confused; gross disorientation; bizarre behavior • Grade 4=Coma; unable to test mental state\nChange in mental status was measured by the Conn score (also known as the West Haven score). The Conn score has been widely used as a measure of mental state in HE studies and is based on the criteria of Parsons-Smith as modified by Conn. The scale used in the Conn scoring system is described above.\nSubjects who discontinued prior to experiencing an increase in Conn score and prior to completion of the 6-month treatment period were censored at the time of discontinuation."}, "rabbits": {"tested_on": "rabbits", "conditions": "rabbit, in vivo"}, "patients with HE": {"tested_on": "patients with HE", "conditions": "rifaximin 1200 mg/day, neomycin 3 g/day; cited from earlier work"}, "rats": {"tested_on": "rats", "assay": "in vivo", "conditions": "rat", "procedure": "(§1) However, plasma drug levels were not measured in these studies. […] The maximum plasma AUC0-8 hr values from the 6 month rat and 9 month dog toxicity studies (range: 42-127 ng·h/mL) was lower than the maximum plasma AUC0-8 hr values in cirrhotic patients (range: 19-306 ng·h/mL)."}, "in vivo": {"assay": "in vivo", "conditions": "rat", "procedure": "as §1"}, "clinical": {"assay": "clinical", "conditions": "male, human, in vivo"}, "Campylobacter jejuni": {"tested_on": "Campylobacter jejuni", "assay": "Travelers' diarrhea Study 2: fever/blood in stool, Campylobacter jejuni", "parameters": "species or system human", "conditions": "in vivo", "procedure": "One study was conducted at clinical sites in Mexico, Guatemala, and Kenya (Study 1). The other study was conducted in Mexico, Guatemala, Peru, and India (Study 2). Stool specimens were collected before treatment and 1 to 3 days following the end of treatment to identify enteric pathogens. The predominant pathogen in both studies was Escherichia coli.\nThe results of Study 2 supported the results presented for Study 1. […] These subjects had lower clinical cure rates than those without fever or blood in the stool at baseline. Many of the patients with fever and/or blood in the stool (dysentery-like diarrheal syndromes) had invasive pathogens, primarily Campylobacter jejuni, isolated in the baseline stool.\nIn addition to not being different from placebo, the microbiologic eradication rates for subjects with Campylobacter jejuni isolated at baseline were much lower than the eradication rates seen for Escherichia coli."}, "[2]": {"conditions": "human", "procedure": "The covariates chosen for the analysis are known indicators of hepatic and renal function. A visual diagnostic was performed to detect potential trends between covariates of interest and AUCτ, Cmax, and CL/F."}, "cytochrome P450 2C19": {"molecular_target": "T1, cytochrome P450 2C19 (Homo sapiens, UniProt P33261)", "T1 construct": "from tissue; host or cells: human liver fractions", "T1 sequence (P33261 whole entry)": "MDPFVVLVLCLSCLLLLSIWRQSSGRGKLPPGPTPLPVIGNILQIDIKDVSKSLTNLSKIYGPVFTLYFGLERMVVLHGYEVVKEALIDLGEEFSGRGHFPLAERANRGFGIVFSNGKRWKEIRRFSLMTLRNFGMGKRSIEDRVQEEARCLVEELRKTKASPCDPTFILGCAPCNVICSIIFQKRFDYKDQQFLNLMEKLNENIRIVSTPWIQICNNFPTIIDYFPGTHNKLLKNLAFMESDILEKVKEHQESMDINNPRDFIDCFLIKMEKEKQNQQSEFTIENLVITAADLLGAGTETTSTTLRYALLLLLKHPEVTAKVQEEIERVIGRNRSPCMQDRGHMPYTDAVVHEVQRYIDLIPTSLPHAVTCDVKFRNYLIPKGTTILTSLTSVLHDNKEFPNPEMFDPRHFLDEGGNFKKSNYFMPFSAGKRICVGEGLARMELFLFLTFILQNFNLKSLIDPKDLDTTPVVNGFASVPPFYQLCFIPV", "assay": "In vitro cytochrome P450 inhibition", "type": "in vitro ADME", "conditions": "2 to 200 ng/mL"}, "P-glycoprotein": {"molecular_target": "P-glycoprotein (Homo sapiens, UniProt P08183)", "sequence (P08183 whole entry)": "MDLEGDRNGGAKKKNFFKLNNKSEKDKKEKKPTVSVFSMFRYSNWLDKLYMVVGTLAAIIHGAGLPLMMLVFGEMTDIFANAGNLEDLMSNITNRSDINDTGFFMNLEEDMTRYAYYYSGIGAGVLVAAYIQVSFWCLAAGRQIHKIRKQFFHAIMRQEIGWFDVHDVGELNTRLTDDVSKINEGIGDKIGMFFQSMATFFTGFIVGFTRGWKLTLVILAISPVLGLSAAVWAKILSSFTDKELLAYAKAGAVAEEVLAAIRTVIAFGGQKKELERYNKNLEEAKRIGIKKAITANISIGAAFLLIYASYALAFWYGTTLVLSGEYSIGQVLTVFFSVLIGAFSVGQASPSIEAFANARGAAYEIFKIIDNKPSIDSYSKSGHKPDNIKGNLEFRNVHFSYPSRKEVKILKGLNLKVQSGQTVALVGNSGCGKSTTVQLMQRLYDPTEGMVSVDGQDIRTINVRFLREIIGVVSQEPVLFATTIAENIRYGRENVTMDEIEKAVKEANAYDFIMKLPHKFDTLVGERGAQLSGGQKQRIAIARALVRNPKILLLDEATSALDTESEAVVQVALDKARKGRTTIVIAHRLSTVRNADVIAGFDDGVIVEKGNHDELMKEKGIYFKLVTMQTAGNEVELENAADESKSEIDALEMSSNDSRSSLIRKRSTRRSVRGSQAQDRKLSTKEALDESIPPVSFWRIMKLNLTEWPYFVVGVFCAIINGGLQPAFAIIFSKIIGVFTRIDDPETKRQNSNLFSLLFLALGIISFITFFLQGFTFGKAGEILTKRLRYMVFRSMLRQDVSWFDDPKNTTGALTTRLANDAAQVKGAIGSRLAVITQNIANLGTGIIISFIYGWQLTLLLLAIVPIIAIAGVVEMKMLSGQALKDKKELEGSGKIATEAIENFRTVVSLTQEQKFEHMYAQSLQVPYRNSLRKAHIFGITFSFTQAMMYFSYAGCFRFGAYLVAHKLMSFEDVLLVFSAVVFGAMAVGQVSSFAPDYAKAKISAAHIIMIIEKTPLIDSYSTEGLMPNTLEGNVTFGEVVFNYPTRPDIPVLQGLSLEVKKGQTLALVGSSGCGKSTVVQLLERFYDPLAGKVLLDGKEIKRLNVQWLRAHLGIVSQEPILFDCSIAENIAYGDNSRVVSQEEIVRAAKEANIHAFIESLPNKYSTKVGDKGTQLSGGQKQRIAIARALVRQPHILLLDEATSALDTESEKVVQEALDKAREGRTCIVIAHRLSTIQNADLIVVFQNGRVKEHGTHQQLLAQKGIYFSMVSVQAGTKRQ", "assay": "In vitro P-glycoprotein substrate study (efflux ratio, verapamil)", "type": "in vitro ADME", "text": "Therefore, no clinically significant interactions with other drugs affected by P-glycoprotein are anticipated."}, "[3]": {"conditions": "treatment interval 0 to <28 days"}, "[4]": {"conditions": "treatment interval 28 to <56 days"}, "[5]": {"conditions": "treatment interval 56 to <84 days"}, "[6]": {"conditions": "treatment interval 84 to <140 days"}, "[7]": {"conditions": "treatment interval 140 to <168 days"}},
  "note": "Several values for one entry are separate records, joined by “and”; a condition that tells them apart may be missing. Identical values can stand only once. Entries after “also recorded” stand apart in the source; their conditions may differ.",
  "data": [
    {"smiles": "CO[C@H]1/C=C/O[C@@]2(C)Oc3c(C)c(O)c4c(O)c(c5c(nc6cc(C)ccn65)c4c3C2=O)NC(=O)/C(C)=C\\C=C\\[C@H](C)[C@H](O)[C@@H](C)[C@@H](O)[C@@H](C)[C@H](OC(C)=O)[C@@H]1C", "note": "[rifaximin, (2S,16Z,18E,20S,21S,22R,23R,24R,25 S,26S,27S,28E)-5,6,21,23,25-pentahydroxy-27-methoxy-2,4,11,16,20,22,24,26-octamethyl-2,7-(epoxypentadeca-[1,11,13]trienimino)benzofuro[4,5-e]pyrido[1,2-á]-benzimidazole-1,15(2H)-dione,25-acetate]", "values": [
      {"measurement": "Event probability (increase in Conn score during the treatment interval)", "setting": "[1]; [3]", "result": 0.012},
      {"measurement": "Probability of no increase in Conn score", "setting": "[1]; [3]", "result": 1.0000},
      {"measurement": "Event probability (increase in Conn score during the treatment interval)", "setting": "[1]; [4]", "result": 0.04},
      {"measurement": "Probability of no increase in Conn score", "setting": "[1]; [4]", "result": 0.8777},
      {"measurement": "Event probability (increase in Conn score during the treatment interval)", "setting": "[1]; [5]", "result": 0.08},
      {"measurement": "Probability of no increase in Conn score", "setting": "[1]; [5]", "result": 0.8407},
      {"measurement": "Event probability (increase in Conn score during the treatment interval)", "setting": "[1]; [6]", "result": 0.05},
      {"measurement": "Probability of no increase in Conn score", "setting": "[1]; [6]", "result": 0.7713},
      {"measurement": "Event probability (increase in Conn score during the treatment interval)", "setting": "[1]; [7]", "result": 0},
      {"measurement": "Probability of no increase in Conn score", "setting": "[1]; [7]", "result": 0.7302},
      {"measurement": "Event probability (increase in Conn score during the treatment interval)", "setting": "[1]; treatment interval ≧168 days", "result": 0.03},
      {"measurement": "Probability of no increase in Conn score", "setting": "[1]; treatment interval ≧168 days", "result": 0.7302},
      {"measurement": "Survival", "setting": "[1]; any increase in Conn score, days r10-r15 as E1001", "result": "1.0000 and 0.8777 and 0.8407 and 0.7713 and 0.7302"},
      {"measurement": "subjects with Conn score changes of −1 or no change", "setting": "[1]; baseline to end of treatment", "result": 77.1, "unit": "%"},
      {"measurement": "prevention of worsening of Conn score, times versus placebo", "setting": "[1]; in vivo", "result": 2.46, "unit": "times"},
      {"measurement": "reduction in risk of first worsening in Conn Score", "setting": "[1]; in vivo", "result": 54, "unit": "%"},
      {"measurement": "subjects with increases in Conn score", "setting": "[1]; in vivo", "result": "37 of 140"},
      {"measurement": "time to first increase in Conn scores vs placebo (FIG. 4)", "setting": "[1]; in vivo", "result": "increased time to the first increase in Conn scores"},
      {"measurement": "Cumulative number of events (increase in Conn score)", "setting": "[1]; [3]", "result": 17},
      {"measurement": "Number of events (increase in Conn score)", "setting": "[1]; [3]", "result": 17},
      {"measurement": "Cumulative number of events (increase in Conn score)", "setting": "[1]; [4]", "result": 22},
      {"measurement": "Number of events (increase in Conn score)", "setting": "[1]; [4]", "result": 5},
      {"measurement": "Cumulative number of events (increase in Conn score)", "setting": "[1]; [5]", "result": 31},
      {"measurement": "Number of events (increase in Conn score)", "setting": "[1]; [5]", "result": 9},
      {"measurement": "Cumulative number of events (increase in Conn score)", "setting": "[1]; [6]", "result": 36},
      {"measurement": "Number of events (increase in Conn score)", "setting": "[1]; [6]", "result": 5},
      {"measurement": "Cumulative number of events (increase in Conn score)", "setting": "[1]; [7]", "result": 36},
      {"measurement": "Number of events (increase in Conn score)", "setting": "[1]; [7]", "result": 0},
      {"measurement": "Cumulative number of events (increase in Conn score)", "setting": "[1]; treatment interval ≧168 days", "result": 37},
      {"measurement": "Number of events (increase in Conn score)", "setting": "[1]; treatment interval ≧168 days", "result": 1},
      {"measurement": "toxic effects", "setting": "rabbits", "result": "negligible toxic effects"},
      {"measurement": "efficacy in patients with HE", "setting": "patients with HE", "result": "comparable efficacy"},
      {"measurement": "toxic effects", "setting": "rats", "result": "negligible toxic effects"},
      {"measurement": "AUC(0-t)", "setting": "in vivo", "result": "42 to 127", "unit": "ng·h/mL"},
      {"measurement": "AUC(0-t)", "setting": "clinical", "result": "19.5 ± 16.5", "unit": "ng·h/mL"},
      {"measurement": "Cmax", "setting": "clinical", "result": "4.3 ± 2.8", "unit": "ng/mL"},
      {"measurement": "Tmax", "setting": "clinical", "result": 1.25, "unit": "h"},
      {"measurement": "clinical cure rate, Campylobacter jejuni as sole pathogen at baseline", "setting": "Campylobacter jejuni", "result": 23.5, "unit": "%"},
      {"measurement": "effectiveness in travelers' diarrhea due to Campylobacter jejuni", "setting": "Campylobacter jejuni", "result": "not effective"},
      {"measurement": "Regression estimate for AUCτ: Albumin", "setting": "[2]", "result": "−0.0573"},
      {"measurement": "Regression estimate for AUCτ: INR", "setting": "[2]", "result": "−1.7432"},
      {"measurement": "Regression estimate for AUCτ: Intercept", "setting": "[2]", "result": 8.4175},
      {"measurement": "Regression estimate for AUCτ: Total Bilirubin", "setting": "[2]", "result": 0.0173},
      {"measurement": "Regression estimate for CL/F: ALT", "setting": "[2]", "result": "−0.0028"},
      {"measurement": "Regression estimate for CL/F: Albumin", "setting": "[2]", "result": 0.0783},
      {"measurement": "Regression estimate for CL/F: INR", "setting": "[2]", "result": 2.5949},
      {"measurement": "Regression estimate for CL/F: Intercept", "setting": "[2]", "result": "−0.8934"},
      {"measurement": "Regression estimate for CL/F: Total Bilirubin", "setting": "[2]", "result": "−0.0185"},
      {"measurement": "Regression estimate for Cmax: ALT", "setting": "[2]", "result": 0.0031},
      {"measurement": "Regression estimate for Cmax: Albumin", "setting": "[2]", "result": "−0.0515"},
      {"measurement": "Regression estimate for Cmax: INR", "setting": "[2]", "result": "−2.0654"},
      {"measurement": "Regression estimate for Cmax: Intercept", "setting": "[2]", "result": 6.5350},
      {"measurement": "Regression estimate for Cmax: Total Bilirubin", "setting": "[2]", "result": 0.0207},
      {"measurement": "inhibition of 2C19", "setting": "cytochrome P450 2C19", "result": "did not inhibit"},
      {"measurement": "P-glycoprotein substrate", "setting": "P-glycoprotein", "result": "substrate of P-glycoprotein; also recorded: substrate for P-glycoprotein"}
    ]}
  ]
}
